pIC50: −log10 of the molar value. Where a name gives a salt, the structure may show the parent alone. Read-outs that look alike come from different tables or passages of the source.
Tests used:
A549 cells = experiment: Toxicity to human A549 cells; format: cell-based; conditions: human A549 cells; read-out: A549 cell IC50
[1] = tested on: Acanthamoeba culbertsoni (ATCC30171) cysts; experiment: Encystation drug susceptibility / excystation viability assay, 30 day recovery, A. culbertsoni cysts; format: cell-based; conditions: ATCC30171, 720 h, minimum cysticidal concentration, no recovery up to 30 days, read-out: A. culbertsoni 30 day MCC
Experimental: (§1) The trophozoites of Acanthamoeba were harvested by mechanical detachment and collected via centrifugation at 4000 rpm at 4° C. for 5 minutes. The trophozoites were washed in 10 mL of Neff's Encystment Media (NEM). NEM composition is 20 mM Tris-HCL [pH 8.8] (2.43 g/L), 100 mM KCL (7.46 g/L), 8 mM MgSO4 (962.96 mg/L), 0.4 mM CaCL2 58.81 mg/L) and 1 mM NaHCO3 (84.01 mg/L) (Neff et al. 1964). All reagents were bought from Sigma Aldrich. Centrifugation of the trophozoites was repeated to ensure any residual growth medium was removed. The pellet was resuspended in a final volume of 15 mL of NEM, cultured in 75 cm^2 corning tissue culture flasks and incubated vertically in a thermal shaker, shaken at 100 rpm at 37° C. for 72 hours to produce fully matured cysts. NEM was supplemented with 250 μg of penicillin/streptomycin. Fresh cysts were produced each time for any experimentation.
(§2) At 72 hours the cysts were harvested using a cell scraper and collected via centrifugation at 4000 rpm at 25° C. for 10 minutes. The cells were washed twice in 10 mL of HyClone™ water, Molecular Biology Grade, and centrifugation was repeated to ensure the removal of any residual NEM. The cell suspension was washed with 0.5% sodium dodecyl sulphate (SDS) to remove any remaining trophozoites and immature cysts. The fully mature cysts were further washed twice with 10 mL of HyClone™ water and 1% NEM, centrifugation was repeated to remove any residue of SDS. The concentration of mature cysts was determined using a haemocytometer and adjusted to 1×10^4 cysts/mL in NEM.
(§3) All test compounds were prepared as 5 mg/mL stock solutions in dimethylsulfoxide (DMSO). All compounds were diluted in NEM, serially diluted in 2-fold dilutions 6 or 11 times, yielding a screening concentration range of 1.56 μg/mL to 50 μg/mL or 48 ng/mL to 50 μg/mL with a final highest screening concentration of 1% DMSO.
(§4) Based on this, a strain specific test period and also a 30 day non-specific recovery time were considered. For the 30 day recovery period, the media was changed 5 times to ensure the contents of wells dis not evaporate and have an effect within the results of the assay.
(§5) 90 μL of 1×10^4 Cysts/ml and 10 μL of experimental compounds from the screening plates were produced according to the protocols above and combined into a Corning clear 96 well treated tissue culture plate. Control wells include cysts in non-drug treated, 1% DMSO, NEM (to be used for negative growth control), NEM Blank, PG blank and cysts in non-drug treated, 1% DMSO, PG (to excyst cells and to be used for positive growth control). The total well volume for all wells was 100 μL. The drug exposed plates were screened at 27° C. for 6 or 24 hours only. At the exposure time point the plates were centrifuged at 4000 rpm at 25° C. for 10 minutes and washed twice with phosphate-buffered saline (PBS) to remove any residual experimental compound.
(§6) Once the plate(s) underwent the Encystation drug susceptibility process, all wells except the negative growth control and NEM blank wells received PG growth medium. All plates were left to recover at 27° C. for the strain specific time period of 5, 9 or 11 days depending on the species of Acanthamoeba. At each of the strain specific time points the plates were removed from incubation and microscopically analysed (qualitatively) for the excystation process for the emergence of excysted viable trophozoites or residual cysts. The presence of excysted trophozoites indicated viable amoebae (non-cystistatic or cysticidal—no effect) and the absence of excystation was considered as cystistatic/cysticidal effects.

Acanthamoeba cysts = experiment: 30 day cysticidal studies, species not given; format: cell-based; conditions: for cysticidal activity over 30 day period: in words; for selectivity index (SI): text b496, A549 IC50 versus 30 day MCC
Experimental: As cells were removed during the 5× media changes for the 30 day time point at concentrations of drugs that allowed excystation, only qualitative, microscopic analysis was performed.

[2] = tested on: Acanthamoeba castellanii (ATCC50370) cysts; experiment: Encystation drug susceptibility / excystation viability assay, 30 day recovery, A. castellanii cysts; format: cell-based; conditions: ATCC50370, 720 h, minimum cysticidal concentration, no recovery up to 30 days, read-out: A. castellanii 30 day MCC
Experimental: as §1, §2, §3, §4, §5, §6

[3] = tested on: Acanthamoeba healyi cysts; experiment: Encystation drug susceptibility / excystation viability assay, 30 day recovery, A. healyi cysts; format: cell-based; conditions: 720 h, minimum cysticidal concentration, no recovery up to 30 days, read-out: A. healyi 30 day MCC
Experimental: as §1, §2, §3, §4, §5, §6

[4] = tested on: Acanthamoeba castellanii trophozoites; experiment: Activity against Acanthamoeba castellanii trophozoites; format: cell-based
[5] = tested on: Balamuthia mandrillaris trophozoites; experiment: Activity against Balamuthia mandrillaris trophozoites; format: cell-based; conditions: Balamuthia mandrillaris; trophozoites, n = 2; read-out: Balamuthia mandrillaris IC50
Experimental: Balamuthia mandrillaris trophozoites were thawed and grown in 10 ml of BM-3 medium. […] After autoclaving, complete BM-3 media was produced by the addition of 10% fetal bovine serum and 125 μg of penicillin/streptomycin antibiotics. The table describes all of the compounds and the activity against Balamuthia trophozoites compared to the activity for select Acanthamoeba trophozoites shown in Table 5.

B. mandrillaris = conditions: previous in vitro testing, cited from earlier work; for effect against B. mandrillaris: in words
[6] = read-out: A. cactellanii Trophozoite IC50
[7] = trophozoites, n = 2, Table 6, read-out: Acanthamoeba castellanii IC50

SMILES	pIC50 (A549 cells)	MCC [1] [µM]	cysticidal activity over 30 day period (Acanthamoeba cysts)	selectivity index (SI) (Acanthamoeba cysts)	MCC [2] [µM]	MCC [3] [µM]	pIC50 [4, 6]	pIC50 [5]	pIC50 [4, 7]	effect against B. mandrillaris (B. mandrillaris)	concentration at which most effective drug against B. mandrillaris (B. mandrillaris; same value in μM) [µM]	concentration at which most effective drug against B. mandrillaris (B. mandrillaris) [µg/mL]
CCCCC(CC)CNC(=N)NC(=N)NCCCCCCNC(=N)NC(=N)NCC(CC)CCCC (stereo not shown) [Alexidine HCL, alexidine, reference compound]	5.80	5.37	shows cysticidal activity	0.29	5.37	5.37	5.77					
N=C(NCCCCCCNC(=N)NC(=N)Nc1ccc(Cl)cc1)NC(=N)Nc1ccc(Cl)cc1 [Chlorhexidine, chlorhexidine, reference compound]	5.51	100	little cysticidal activity	0.03	100	100	6.00					
CC(C)NC(=N)c1ccc2nc(-c3ccc(Oc4ccc(-c5nc6ccc(C(=N)NC(C)C)cc6[nH]5)c(Br)c4)cc3)[nH]c2c1 [M, 2-(2-Bromo-4-(4-(6-(N-isopropylcarbamimidoyl)-1H-benzo[d]imidazol-2-yl)phenoxy)phenyl)-N-isopropyl-1H-benzo[d]imidazole-6-carboximidamide]	5.41	5.7			2.85	3.8		7.10	6.41			
COc1cc(Oc2ccc(-c3nc4ccc(C(=N)NC(C)C)cc4[nH]3)c(Br)c2)ccc1-c1nc2ccc(C(=N)NC(C)C)cc2[nH]1 [N, 2-(2-Bromo-4-(4-(6-(N-isopropylcarbamimidoyl)-1H-benzo[d]imidazol-2-yl)-3-methoxyphenoxy)phenyl)-N-isopropyl-1H-benzo[d]imidazole-6-carboximidamide]	5.41	3.68			9.2	5.52		6.92	6.25			
CC(C)NC(=N)c1ccc2nc(-c3ccc(Oc4ccc(-c5nc6ccc(C(=N)NC(C)C)cc6[nH]5)cc4Br)cc3)[nH]c2c1 [O, 2-(3-Bromo-4-(4-(6-(N-isopropylcarbamimidoyl)-1H-benzo[d]imidazol-2-yl)phenoxy)phenyl)-N-isopropyl-1H-benzo[d]imidazole-6-carboximidamide]	5.43	11.4			11.4	11.4		6.89	6.17			
CC(C)NC(=N)c1ccc2nc(-c3ccc(Oc4ccc(-c5nc6ccc(C(=N)NC(C)C)cc6[nH]5)cc4Cl)c(Cl)c3)[nH]c2c1 [P, 2,2′-(Oxybis(3-chloro-4,1-phenylene))bis(N-isopropyl-1H-benzo[d]imidazole-6-carboximidamide)]	5.31	20			18	9.99		6.74	6.09			
CC(C)NC(=N)c1ccc2nc(-c3ccc(Oc4ccc(-c5nc6ccc(C(=N)NC(C)C)cc6[nH]5)c(Br)c4)c(F)c3)[nH]c2c1 [Q, 2-(2-Bromo-4-(2-fluoro-4-(6-(N-isopropylcarbamimidoyl)-1H-benzo[d]imidazol-2-yl)phenoxy)phenyl)-N-isopropyl-1H-benzo[d]imidazole-6-carboximidamide]	5.45	2.7			3.6	3.6		7.00	6.39			
C[C@@H]1[C@H](O)[C@@H](C)/C=C/C=C/C=C/C=C/C=C/C=C/C=C/[C@H](O[C@@H]2O[C@H](C)[C@@H](O)[C@H](N)[C@@H]2O)C[C@@H]2O[C@](O)(C[C@@H](O)C[C@@H](O)[C@H](O)CC[C@@H](O)C[C@@H](O)CC(=O)O[C@H]1C)C[C@H](O)[C@H]2C(=O)O [amphotericin B]										marginal effects		
CC[C@H]1OC(=O)[C@H](C)[C@@H](O[C@H]2C[C@@](C)(OC)[C@@H](O)[C@H](C)O2)[C@H](C)[C@@H](O[C@@H]2O[C@H](C)C[C@H](N(C)C)[C@H]2O)[C@](C)(O)C[C@@H](C)CN(C)[C@H](C)[C@@H](O)[C@]1(C)O [azithromycin]										no effect		
CC[C@H]1OC(=O)[C@H](C)[C@@H](O[C@H]2C[C@@](C)(OC)[C@@H](O)[C@H](C)O2)[C@H](C)[C@@H](O[C@@H]2O[C@H](C)C[C@H](N(C)C)[C@H]2O)[C@](C)(OC)C[C@@H](C)C(=O)[C@H](C)[C@@H](O)[C@]1(C)O [clarithromycin]										no effect		
N=C(N)c1ccc(OCCCCCOc2ccc(C(=N)N)cc2)cc1 [pentamidine]											29.38	10
